Results from patent US20090156545A1, “Substituted Phosphate Esters of Nucleoside Phosphonates” (priority 2005, published 2009).
Like-named read-outs stand apart in the source and are kept apart here.

Tests used:
Assay type in all cases: cell-based
HIV-1Lai = HIV-1Lai p24 reduction assay in MT-2 cells
HSV-1 [1] = assay: HSV-1 plaque reduction assay
HSV-1 [2] = assay: HSV-1 DNA reduction assay in MRC-5 cells
HSV-2 = HSV-2 plaque reduction assay
MCMV = MCMV plaque reduction assay in HFF cells; settings: read-out: MCMV, 50% effective concentration, EC50
Vaccinia WR = assay: microbe, parasite or virus in culture; settings: read-out: Vaccinia, 50% effective concentration, EC50
Cowpox Brighton = assay: organism not typed; settings: read-out: Cowpox, 50% effective concentration, EC50
HCMV AD169 = HCMV AD169 plaque reduction assay in HFF cells
[3] = read-out: HSV-1, 50% effective concentration, EC50
[4] = read-out: HCMV, 50% effective concentration, EC50

Compound | EC50 (MCMV) | EC50 (HSV-1 [2]; [3]) | EC50 (Vaccinia WR) | EC50 (Cowpox Brighton) | EC50 (HCMV AD169; [4]) | further results
(2-(6amino-9H-purin-9-yl)ethoxy)methylphosphonic(3-hexadecyloxy)propylphosphonic)anhydride [HDP-phospho-ADV] |  |  |  |  |  | EC50 (HIV-1Lai; read-out: HIV-1, 50% effective concentration, EC50): 9 nM
Nc1ccn(C[C@@H](CO)OCP(=O)(O)O)c(=O)n1 [HPMPC, (S)-9-[3-hydroxy-2-(phosphonomethoxy)-propyl]cytosine, reference compound] | 40 nM |  |  |  |  | EC50 (HSV-1 [1]; Human alphaherpesvirus 1, read-out: HSV-1, 50% effective concentration, EC50): 15000 nM; EC50 (HSV-1 [2]; Human alphaherpesvirus 1, MRC5, read-out: HSV-1, 50% effective concentration, EC50): 3300 nM; EC50 (HSV-2; Human alphaherpesvirus 2, read-out: HSV-2, 50% effective concentration, EC50): 10500 nM; EC50 (Vaccinia WR; Orthopoxvirus vaccinia, HFF): 31000 nM; EC50 (Cowpox Brighton; HFF): 42000 nM; EC50 (HCMV AD169; Human betaherpesvirus 5, read-out: HCMV, 50% effective concentration, EC50): 1200 nM
Nc1ncnc2c1ncn2CCOCP(=O)(O)O [ADV, phosphonomethoxyethyadenine, reference compound] |  |  |  |  |  | EC50 (HIV-1Lai; Human immunodeficiency virus 1, MT2, read-out: HIV-1, 50% effective concentration, EC50): 1300 nM
CCCCCCCCCCCCCCCCCCOCCOP(=O)(O)OP(=O)(O)CO[C@H](CO)Cn1ccc(N)nc1=O [ODE-phospho-HPMPC] | 30 nM | 0.02 nM | 320 nM | 540 nM | 4 nM | 
(1-(4-aminooxopyrimidin-1(2H)-yl)-3-hydroxypropan-2-yloxy)methylphosphonic(3-hexadecyloxy)propylphosphoric) anhydride [HDP-phospho-HPMPC] | 350 nM | 60 nM | 2800 nM | 3900 nM | 100 nM | EC50 (HSV-1 [1]; [3]): 130 nM; EC50 (HSV-2; read-out: HSV-2, 50% effective concentration, EC50): 300 nM
